This note sets out measurements from ChEMBL document CHEMBL4610012, “Identification of vibsanin A analog as a novel HSP90 inhibitor” (Bioorg Med Chem, 2020).

In data set [1] the test system is MCF7. The data set can be described thus: Effect on HSP90 level in human MCF7 cells at 10 uM incubated for 24 hrs by immunoblotting assay (reference value: 1). The settings on record: mcf7, 24 h. It counts as ADME, cell-based.
Data set [2] relates to MCF7. Kind of data set: Effect on HER2 mRNA expression in human MCF7 cells at 10 uM incubated for 24 hrs by qRT-PCR analysis. It counts as functional, cell-based. Background: Real-time PCR tracks product formation cycle by cycle.
Data set [3] deals with HT-1080. The data set can be described thus: Antiproliferative activity against human HT1080 cells assessed as reduction in cell viability incubated for 72 hrs by MTT assay. Type of data set: functional, cell-based. Particulars: HT-1080, 72 h.
In a further data set the test system is A549. Kind of data set: Antiproliferative activity against human A549 cells assessed as reduction in cell viability incubated for 72 hrs by MTT assay. Type of data set: functional, cell-based. Particulars: A549, 72 h. A general note: Tetrazolium assays rely on reduction of a dye to a coloured formazan, in cell work by metabolically active cells.
In another data set the test system is PANC-1. Kind of data set: Antiproliferative activity against human PANC1 cells assessed as reduction in cell viability incubated for 72 hrs by MTT assay. The settings on record: PANC-1, 72 h. It counts as functional, cell-based.
The next data set relates to A-431. Kind of data set: Antiproliferative activity against human A431 cells assessed as reduction in cell viability incubated for 72 hrs by MTT assay. The settings on record: A-431, 72 h. It counts as functional, cell-based.
For the next data set, the system named is HT-29. The data set can be described thus: Antiproliferative activity against human HT-29 cells assessed as reduction in cell viability incubated for 72 hrs by MTT assay. It counts as functional, cell-based. Particulars: HT-29, 72 h.
A further data set deals with SK-MEL-28. The data set can be described thus: Antiproliferative activity against human SK-MEL-28 cells assessed as reduction in cell viability incubated for 72 hrs by MTT assay. It counts as functional, cell-based. Particulars: SK-MEL-28, 72 h.
The nature of data set [4]: Antiproliferative activity against human ES2 cells assessed as reduction in cell viability incubated for 72 hrs by MTT assay. Type of data set: functional, cell-based. Particulars: ES-2, 72 h.
The test system of data set [5] is MCF7. The data set can be described thus: Antiproliferative activity against human MCF7 cells assessed as reduction in cell viability incubated for 72 hrs by MTT assay. It counts as functional, cell-based. Particulars: MCF7, 72 h.
The subject of the next data set is PC-3. Kind of data set: Antiproliferative activity against human PC3 cells assessed as reduction in cell viability incubated for 72 hrs by MTT assay. The settings on record: PC-3, 72 h. Type of data set: functional, cell-based.
Another data set relates to NEC8. Kind of data set: Antiproliferative activity against human NEC8 cells assessed as reduction in cell viability incubated for 72 hrs by MTT assay. It counts as functional, cell-based. The settings on record: NEC8, 72 h.
In data set [6] the test system is HT-1080. Kind of data set: Induction of vacuole formation in human HT1080 cells at 10 uM incubated for 24 hrs. Type of data set: functional, cell-based.
For data set [7], the system named is HT-1080. The data set can be described thus: Effect on Akt level in human HT1080 cells assessed as Akt level at 10 uM incubated for 24 hrs by immunoblot assay (reference value: 1). The settings on record: ht-1080, 24 h. It counts as cell-based.
The target of data set [8] is T1, Serine/threonine-protein kinase AKT (Homo sapiens) (UniProt P31751+Q9Y243+P31749). The data set can be described thus: Inhibition of Akt signaling pathway in human HT1080 cells assessed as fold change in phosphorylated Akt level at 10 uM incubated for 24 hrs by immunoblot assay (reference value: 1). Type of data set: cell-based. Particulars: HT-1080. Background: A western blot detects proteins with antibodies after separation by electrophoresis.
T1 sequence (P31749 whole entry, looked up): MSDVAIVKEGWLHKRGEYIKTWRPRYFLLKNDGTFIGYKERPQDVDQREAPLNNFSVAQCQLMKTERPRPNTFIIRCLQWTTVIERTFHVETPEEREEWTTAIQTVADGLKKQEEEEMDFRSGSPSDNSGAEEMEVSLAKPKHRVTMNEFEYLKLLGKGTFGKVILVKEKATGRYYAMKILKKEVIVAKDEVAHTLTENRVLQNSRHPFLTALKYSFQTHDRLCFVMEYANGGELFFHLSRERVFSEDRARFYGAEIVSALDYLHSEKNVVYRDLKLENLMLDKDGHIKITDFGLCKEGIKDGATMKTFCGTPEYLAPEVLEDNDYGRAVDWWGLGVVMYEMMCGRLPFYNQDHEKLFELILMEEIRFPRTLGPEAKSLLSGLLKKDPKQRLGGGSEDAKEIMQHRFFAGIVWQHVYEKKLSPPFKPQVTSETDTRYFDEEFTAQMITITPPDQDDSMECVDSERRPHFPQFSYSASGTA
T1 sequence (P31751 whole entry, looked up): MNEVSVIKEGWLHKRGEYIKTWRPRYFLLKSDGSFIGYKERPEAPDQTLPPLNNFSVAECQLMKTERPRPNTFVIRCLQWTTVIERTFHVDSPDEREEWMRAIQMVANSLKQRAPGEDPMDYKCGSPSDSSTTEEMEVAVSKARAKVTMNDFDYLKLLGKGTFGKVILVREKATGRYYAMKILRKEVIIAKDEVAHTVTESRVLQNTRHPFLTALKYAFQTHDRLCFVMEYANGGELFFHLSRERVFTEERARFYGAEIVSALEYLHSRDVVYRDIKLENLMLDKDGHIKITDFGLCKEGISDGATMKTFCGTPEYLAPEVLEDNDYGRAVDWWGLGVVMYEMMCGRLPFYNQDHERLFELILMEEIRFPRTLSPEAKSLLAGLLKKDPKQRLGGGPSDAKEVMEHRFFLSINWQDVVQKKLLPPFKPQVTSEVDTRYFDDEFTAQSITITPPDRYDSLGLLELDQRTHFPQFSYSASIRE
T1 sequence (Q9Y243 whole entry, looked up): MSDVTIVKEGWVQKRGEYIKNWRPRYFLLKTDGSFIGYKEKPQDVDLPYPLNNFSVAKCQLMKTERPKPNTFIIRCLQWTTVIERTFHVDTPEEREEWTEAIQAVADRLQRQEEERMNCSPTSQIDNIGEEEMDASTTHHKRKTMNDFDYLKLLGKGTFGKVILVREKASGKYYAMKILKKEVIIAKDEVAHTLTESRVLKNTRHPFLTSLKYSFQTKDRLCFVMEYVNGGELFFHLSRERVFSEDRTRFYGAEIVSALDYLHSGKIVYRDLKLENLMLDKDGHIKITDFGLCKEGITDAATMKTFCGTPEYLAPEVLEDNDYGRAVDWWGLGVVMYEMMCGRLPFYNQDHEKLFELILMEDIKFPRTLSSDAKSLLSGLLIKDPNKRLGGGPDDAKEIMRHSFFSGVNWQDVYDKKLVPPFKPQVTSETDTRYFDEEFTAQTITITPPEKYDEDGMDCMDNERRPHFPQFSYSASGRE

Data set [9] concerns the target T1, Serine/threonine-protein kinase AKT (Homo sapiens). The data set can be described thus: Inhibition of Akt signaling pathway in human HT1080 cells assessed as fold change in phosphorylated 70S6K level at 10 uM incubated for 24 hrs by immunoblot assay (reference value: 1). Type of data set: cell-based. The settings on record: HT-1080.
For data set [10] the target is unchanged. The data set can be described thus: Inhibition of Akt signaling pathway in human HT1080 cells assessed as fold change in phosphorylated Akt level at 0.01 uM incubated for 12 hrs by immunoblot assay (reference value: 1). The settings on record: HT-1080. Type of data set: cell-based.
For data set [11] the target is unchanged. The data set can be described thus: Inhibition of Akt signaling pathway in human HT1080 cells assessed as fold change in phosphorylated Akt level at 0.1 uM incubated for 12 hrs by immunoblot assay (reference value: 1). It counts as cell-based. The settings on record: HT-1080.
The target is the same in data set [12]. Kind of data set: Inhibition of Akt signaling pathway in human HT1080 cells assessed as fold change in phosphorylated Akt level at 1 uM incubated for 12 hrs by immunoblot assay (reference value: 1). It counts as cell-based. Particulars: HT-1080.
For data set [13] the target is unchanged. The data set can be described thus: Inhibition of Akt signaling pathway in human HT1080 cells assessed as fold change in phosphorylated Akt level at 10 uM incubated for 12 hrs by immunoblot assay (reference value: 1). Type of data set: cell-based. The settings on record: HT-1080.
Data set [14] has the same target. Kind of data set: Inhibition of Akt signaling pathway in human HT1080 cells assessed as reduction in phosphorylated Akt level incubated for 12 hrs by immunoblot assay. Particulars: HT-1080. It counts as cell-based.
The target of data set [15] is Receptor tyrosine-protein kinase erbB-2 (Homo sapiens) (UniProt P04626). Kind of data set: Induction of HER2 destabilization in human MCF7 cells assessed as half life at 10 uM measured up to 24 hrs by immunoblotting assay (Rvb > 24 hrs). It counts as cell-based.
Receptor tyrosine-protein kinase erbB-2 (Homo sapiens), sequence (P04626 whole entry): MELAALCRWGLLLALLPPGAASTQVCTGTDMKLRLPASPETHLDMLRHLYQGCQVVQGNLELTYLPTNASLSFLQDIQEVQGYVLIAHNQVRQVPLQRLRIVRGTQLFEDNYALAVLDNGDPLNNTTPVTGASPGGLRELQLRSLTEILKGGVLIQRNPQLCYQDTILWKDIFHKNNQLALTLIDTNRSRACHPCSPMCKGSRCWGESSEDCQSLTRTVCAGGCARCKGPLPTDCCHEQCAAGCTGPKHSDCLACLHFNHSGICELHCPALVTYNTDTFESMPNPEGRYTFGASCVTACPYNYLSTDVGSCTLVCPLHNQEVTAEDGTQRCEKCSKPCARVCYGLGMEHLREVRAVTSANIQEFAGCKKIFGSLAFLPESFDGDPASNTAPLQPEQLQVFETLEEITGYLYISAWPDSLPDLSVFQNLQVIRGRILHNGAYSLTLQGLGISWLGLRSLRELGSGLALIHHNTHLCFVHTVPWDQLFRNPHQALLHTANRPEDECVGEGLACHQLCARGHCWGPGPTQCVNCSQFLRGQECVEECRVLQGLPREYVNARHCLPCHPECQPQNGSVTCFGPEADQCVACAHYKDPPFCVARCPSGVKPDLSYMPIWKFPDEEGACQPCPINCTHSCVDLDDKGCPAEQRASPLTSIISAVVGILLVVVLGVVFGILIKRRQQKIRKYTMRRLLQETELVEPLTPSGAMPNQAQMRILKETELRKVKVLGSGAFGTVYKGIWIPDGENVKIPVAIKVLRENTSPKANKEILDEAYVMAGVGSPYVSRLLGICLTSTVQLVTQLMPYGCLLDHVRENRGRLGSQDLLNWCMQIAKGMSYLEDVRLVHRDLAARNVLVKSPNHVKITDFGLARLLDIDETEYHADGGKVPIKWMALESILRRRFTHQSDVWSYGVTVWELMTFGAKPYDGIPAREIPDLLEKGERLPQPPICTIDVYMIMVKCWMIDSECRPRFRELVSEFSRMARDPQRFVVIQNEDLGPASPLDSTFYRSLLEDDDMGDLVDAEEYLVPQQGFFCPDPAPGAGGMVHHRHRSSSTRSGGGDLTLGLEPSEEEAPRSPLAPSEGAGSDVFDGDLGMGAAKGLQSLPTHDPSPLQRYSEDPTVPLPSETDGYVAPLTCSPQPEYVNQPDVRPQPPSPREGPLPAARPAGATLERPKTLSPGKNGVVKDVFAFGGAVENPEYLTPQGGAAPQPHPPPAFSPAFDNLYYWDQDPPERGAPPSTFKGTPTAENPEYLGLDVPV
Data set [16] addresses Heat shock protein HSP90 (Homo sapiens) (UniProt P07900+P08238). Kind of data set: Inhibition of HSP90 chaperone activity in human HeLa cells assessed as reduction in denatured luciferase refolding at 100 uM incubated for 60 mins by luciferase refolding assay. Type of data set: cell-based.
Data set [17] addresses Luciferin 4-monooxygenase (Photinus pyralis) (UniProt P08659). Kind of data set: Effect on firefly luciferase activity at 100 uM incubated for 60 mins by luciferase assay system.

The source made the active and inactive calls. The calls are words filed in the database; no cut-off is given here. Bounds are passed on as bounds.

Luciferin 4-monooxygenase (Photinus pyralis), sequence (P08659 whole entry): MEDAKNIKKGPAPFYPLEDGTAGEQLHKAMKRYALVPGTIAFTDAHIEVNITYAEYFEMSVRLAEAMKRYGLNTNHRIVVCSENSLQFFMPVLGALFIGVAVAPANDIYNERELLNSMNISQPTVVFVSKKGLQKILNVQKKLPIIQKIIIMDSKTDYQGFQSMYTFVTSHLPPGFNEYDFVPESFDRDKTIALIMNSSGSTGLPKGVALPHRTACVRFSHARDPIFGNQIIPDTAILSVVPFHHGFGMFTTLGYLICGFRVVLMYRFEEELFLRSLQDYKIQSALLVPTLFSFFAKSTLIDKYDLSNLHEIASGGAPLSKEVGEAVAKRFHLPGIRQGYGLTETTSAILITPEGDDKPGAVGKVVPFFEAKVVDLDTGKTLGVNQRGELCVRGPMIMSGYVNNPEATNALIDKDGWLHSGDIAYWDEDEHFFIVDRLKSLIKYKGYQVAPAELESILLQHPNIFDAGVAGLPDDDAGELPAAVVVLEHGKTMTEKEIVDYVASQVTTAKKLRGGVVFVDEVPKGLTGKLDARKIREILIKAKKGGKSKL

For the compound `COC1=C2C[C@@H](C)C[C@H](OC)[C@H](O)[C@@H](C)/C=C(\C)[C@H](OC(N)=O)[C@@H](OC)/C=C\C=C(/C)C(=O)NC(=CC1=O)C2=O` [GELDANAMYCIN], the “fold change (FC)” value in the data set with MCF7 [1] is 1.01. The outcome with MCF7 [2] was inactive.
In the case of `CC(C)=CCC[C@]1(C)/C=C/[C@@H](OC(=O)C=C(C)C)[C@]2(C)O[C@@H]2CC/C(CO)=C\C1`, the IC50 – broadly, the concentration needed to halve the response being measured – in the data set with HT-1080 [3] was over 20 µM; in the data set with A549 it was 8.3 µM; with PANC-1, 0.025 µM; in the data set with A-431 it was 16 µM; in the data set with HT-29, 6.8 µM; with SK-MEL-28 it was over 20 µM. Also, the IC50 in [4] was 2.9 µM; in the data set on MCF7 [5] it was 15 µM; with PC-3 it was over 20 µM; with NEC8, 8.4 µM. For the same compound, in the data set with HT-1080 [6], the outcome was inactive. Besides, the “fold change (FC)” value amounted to 1.08 in the data set with HT-1080 [7], 0.98 in data set [8] and 1.2 in data set [9].
As for `CC(C)=CCC[C@]1(C)/C=C/[C@@H](OC(=O)C=C(C)C)[C@]2(C)O[C@@H]2CC/C(C=O)=C\C1`, the half-inhibitory concentration (IC50) with HT-1080 [3] is 18 µM; with A549, 11 µM; in the data set with PANC-1 it was 2.7 µM; in the data set on A-431, 13 µM; in the data set on HT-29, 7.8 µM; in the data set with SK-MEL-28 it was over 20 µM. Further, the IC50 is 7.5 µM in [4], 12 µM with MCF7 [5], over 20 µM in the data set with PC-3 and 12 µM in the data set with NEC8. For the same compound, the result in the data set on HT-1080 [6] was inactive. Also, the “fold change (FC)” value is 0.85 with HT-1080 [7], 1.05 in data set [8] and 1.11 in data set [9].
`C=C(I)CC[C@H]1O[C@@]1(C)[C@@H](/C=C/[C@](C)(CC=O)CCC=C(C)C)OC(=O)C=C(C)C`: the half-maximal inhibitory concentration (IC50) with HT-1080 [3] was 18 µM; in the data set on A549, over 20 µM; with PANC-1, 5.1 µM; with A-431, 20 µM; in the data set on HT-29, over 20 µM; with SK-MEL-28, over 20 µM. For the same compound, the IC50 in data set [4] is over 20 µM; in the data set with MCF7 [5], over 20 µM; in the data set on PC-3, over 20 µM; with NEC8, 11 µM. The outcome in the data set with HT-1080 [6] was inactive. The entries for the “fold change (FC)” value (in the data set with HT-1080 [7]; in data set [8]; in [9]) were 0.92, 0.91 and 1.15, respectively.
Turning to `C=C1CC[C@H]2O[C@@]2(C)[C@H](OC(=O)C=C(C)C)/C=C/[C@@](C)(CCC=C(C)C)CC1=O`, the IC50 with HT-1080 [3] was 1.2 µM; with A549, 4.4 µM; in the data set with PANC-1, 3.5 µM; with A-431 it was 0.89 µM; in the data set on HT-29 it was 2 µM; in the data set with SK-MEL-28, 0.97 µM. Moreover, the IC50 came to 4.3 µM in data set [4], 3.5 µM in the data set on MCF7 [5], 4.3 µM in the data set on PC-3 and 3 µM in the data set on NEC8. Also, the outcome in the data set on HT-1080 [6] was Active. The “fold change (FC)” value came out at 0.8 in the data set on HT-1080 [7]; 0.11 in data set [8]; 0.08 in [9]; 0.99 in [10]; 0.8 in data set [11]; 0.63 in data set [12]. Also, the results for the fold change (FC) (in [13]; in the data set on MCF7 [1]) were 0.38 and 0.98, respectively. In addition, the inhibition entry in [14] is “Dose-dependent effect”. The T1/2 in data set [15] came to 15 h. The result (with MCF7 [2]; in [17]) was inactive. For the same compound, in data set [16], the inhibition entry is “Active”.
As for `C=C1CC[C@H]2O[C@@]2(C)[C@H](OC(=O)C=C(C)C)/C=C/[C@@](C)(CCC=C(C)C)C[C@H]1O`, the IC50 with HT-1080 [3], with A549, in the data set on PANC-1, with A-431, in the data set with HT-29 and in the data set on SK-MEL-28 was over 20 µM throughout. For the same compound, the IC50 was over 20 µM in [4], over 20 µM in the data set with MCF7 [5], over 20 µM in the data set on PC-3 and 11 µM in the data set with NEC8. In the data set on HT-1080 [6], the result was inactive. Moreover, the “fold change (FC)” value in the data set on HT-1080 [7] came out at 0.98; in data set [8], 0.95; in data set [9], 1.1.
